Test results from US20090221624A1, “4-AMINOQUINOLINE COMPOUNDS FOR TREATING VIRUS-RELATED CONDITIONS” (priority 2005, published 2009).
Like-named read-outs stand apart in the source and are kept apart here.

Legend:
[1] = system: HCV replicon (Clone A cells, Huh7, subgenomic hepatits C virus RNA); test: HCV Neo screening assay (HCV replicon, NPTII ELISA); assay type: cell-based, hepatitis C virus; conditions: for EC50 / inhibition at 25 µM: Hepatitis C virus, Huh-7; for EC50: Secondary Data, HCV; for inhibition at 25 µM: primary screening, 25 μM final concentration, 24 hours, percent inhibition of viral replication, read-out: HCV Inh; for HCV TI: therapeutic index CC50/EC50, HCV
[2] = system: SINV (SR19-F-luc cells); test: SINV antiviral activity, SR19-F-luc cells, Firefly luciferase; assay type: cell-based; conditions: Sindbis virus; for inhibition at 25 µM: primary screening, 25 μM final concentration, 24 hours, percent inhibition of viral replication, read-out: SINV Inh; for EC50: secondary screening, SR19-F-luc cells
[3] = system: YFV (YF-hRuPac cells); test: microbe, parasite or virus in culture; assay type: cell-based, yellow fever virus; conditions: for inhibition at 25 µM / EC50: Yellow fever virus; for inhibition at 25 µM: 24 h, read-out: YFV Inh; for EC50: read-out: YFV EC50
[4] = in vitro
[5] = system: EBOV minigenome; test: microbe, parasite or virus in culture; assay type: cell-based, Ebola virus; conditions: Zaire ebolavirus; for inhibition at 25 µM: 24 h, read-out: EBOV Inh; for EC50: read-out: EBOV EC50
[6] = system: DNG (D2-hRuPac cells); test: DNG antiviral activity, D2-hRuPac cells, Renilla luciferase; assay type: cell-based, Dengue fever virus; conditions: Dengue virus, secondary screening
[7] = system: WNV (WN-hRuPac cells); test: WNV antiviral activity, WN-hRuPac cells, Renilla luciferase; assay type: cell-based, West Nile virus; conditions: for EC50 / inhibition at 25 µM: West Nile virus; for EC50: read-out: WNV EC50; for inhibition at 25 µM: primary screening, 25 μM final concentration, 24 hours, percent inhibition of viral replication, read-out: WNV Inh; for WNV TI: therapeutic index CC50/EC50, WNV
[8] = system: RSV minigenome; test: RSV minigenome-dependent β-galactosidase expression assay (RSV β-Gal); assay type: cell-based, respiratory syncytial virus; conditions: for EC50 / inhibition at 25 µM: human respiratory syncytial virus; for EC50: RSV; for inhibition at 25 µM: primary screening, 25 μM final concentration, 24 hours, percent inhibition of viral replication, read-out: RSV Inh; for RSV TI: therapeutic index CC50/EC50, RSV
[9] = Secondary Data, read-out: RSV EC50

| SMILES | inhibition at 25 µM [1] | inhibition at 25 µM [2] | EC50 [2] | YFV TI [3] | inhibition at 25 µM [3] | EC50 [3] | CC50 ([4]; DNG CC50) | CC50 ([4]; EBOV CC50) | CC50 ([4]; HCV CC50) | CC50 ([4]; RSV CC50) | CC50 ([4]; SINV CC50) | CC50 ([4]; WNV CC50) | CC50 ([4]; YFV CC50) | inhibition at 25 µM [5] | EC50 [5] | EC50 [6] | EC50 ([7]; Secondary Data, WNV) | inhibition at 25 µM [7] | WNV TI [7] | RSV TI [8] | also measured |
| --- | --- | --- | --- | --- | --- | --- | --- | --- | --- | --- | --- | --- | --- | --- | --- | --- | --- | --- | --- | --- | --- |
| c1ccc2cc(Nc3c4ccccc4nc4ccccc34)ccc2c1 [Compound 1] | 177% | 34.1% | 28.1 µM | 7.5 | 77.5% | 6.34 µM | 47.6 µM | 47.6 µM | 3.83 µM | 47.6 µM | 47.6 µM | 47.6 µM | 47.6 µM | 39.8% | 35.8 µM | 7.17 µM | 5.7 µM | 65.4% | 8.34 | 25.16 | EC50 [1]: 6.52 µM; HCV TI [1]: 0.59; EC50 [8, 9]: 1.89 µM; inhibition at 25 µM [8]: 99.9% |
| CCc1ccccc1Nc1c2ccccc2nc2ccccc12 [Compound 2] | 154% | 70.2% | 19.3 µM | 4.95 | 71.8% | 6.65 µM | 32.9 µM | 32.9 µM | 6.12 µM | 32.9 µM | 32.9 µM | 32.9 µM | 32.9 µM | 20.1% | 38.7 µM | 21.3 µM | 17.8 µM | 49.6% | 1.85 | 25.33 | EC50 [1]: 8 µM; HCV TI [1]: 0.77; EC50 [8, 9]: 1.3 µM; inhibition at 25 µM [8]: 99.8% |
| Cc1ccc2nc(C)cc(Nc3ccccc3)c2c1 [Compound 3] | 32.1% | 76.1% | 1.29 µM | 2.84 | 41.7% | 18.4 µM | 52.3 µM | 52.3 µM | 32.3 µM | 52.3 µM | 52.3 µM | 52.3 µM | 52.3 µM | -44.2% | 65.2 µM | 34.2 µM | – | 38.7% | 1.75 | 4.63 | EC50 [7]: 29.9 µM; EC50 ([8]; read-out: RSV EC50, Secondary Data): 11.3 µM; inhibition at 25 µM [8]: 86.3% |
| CCOC(=O)c1ccc(Nc2cc(C)nc3c2ccc2ccccc23)cc1 [Compound 4] | 105% | -22.2% | ≥ 75 µM | 17.1 | 81.7% | 4.26 µM | 72.9 µM | 72.9 µM | 32.5 µM | 72.9 µM | 72.9 µM | 72.9 µM | 72.9 µM | 6.57% | 59.3 µM | 32.7 µM | ≥ 75 µM | 28.4% | 0.97 | 1.97 | EC50 [1]: 15.6 µM; HCV TI [1]: 2.08; EC50 [8, 9]: 37 µM; inhibition at 25 µM [8]: 47.7% |
| c1cncc(CNc2c3ccccc3nc3ccccc23)c1 [Compound 5] | 211% | 29.6% | 7.02 µM | 2.57 | 84.7% | 11.1 µM | 28.6 µM | 28.6 µM | 9.67 µM | 28.6 µM | 28.6 µM | 28.6 µM | 28.6 µM | 86% | 15.3 µM | 3.64 µM | 7.15 µM | 89.3% | 3.99 | 10.2 | EC50 [1]: 1.76 µM; HCV TI [1]: 5.49; EC50 [8, 9]: 2.8 µM; inhibition at 25 µM [8]: 98.5% |
| COc1ccc(Nc2cc(C)nc3c2ccc2ccccc23)cc1 [Compound 7] | 104% | 7.58% | ≥ 75 µM | – | 64.1% | ≥ 75 µM | ≥ 75 µM | ≥ 75 µM | 14 µM | ≥ 75 µM | ≥ 75 µM | ≥ 75 µM | ≥ 75 µM | 85.3% | 10.8 µM | 17 µM | ≥ 75 µM | 34.3% | – | 7.5 | EC50 [1]: 5.87 µM; HCV TI [1]: 2.39; EC50 [8, 9]: 10 µM; inhibition at 25 µM [8]: 76.9% |
| Cc1cc(NNC(=O)OCc2ccccc2)c2ccccc2n1 [Compound 78] | – | – | 7.54 µM | 2.95 | – | 17.3 µM | 51.1 µM | 51.1 µM | ≥ 75 µM | 51.1 µM | 51.1 µM | 51.1 µM | 51.1 µM | 42.3% | 75 µM | 57 µM | ≥ 75 µM | – | 0.68 | 37.03 | EC50 [8, 9]: 1.38 µM |
